Measurements published in paper PMC10042772 (Targeted Oncology, 2023).

Experiments:
MDA-MB-453 cells = assay: CellTiter-Glo 2.0 viability assay, 10 days; type: cell-based, human; conditions: MDA-MB-453, 10 days of continuous exposure
[1] = cited from earlier work
CBP/p300 over BRD4 = conditions: selective CBP/p300 binder; cited from earlier work

Structure (SMILES)	times less active than FT-6876 at inhibiting proliferation (MDA-MB-453 cells) [times]	microsomal stability [1]	selectivity over BRD4 and other BRD and BET family members (CBP/p300 over BRD4) [fold]
CNC(=O)c1ccc(N2C(=S)N(c3ccc(C#N)c(C(F)(F)F)c3)C(=O)C2(C)C)cc1F [Enzalutamide, enzalutamide]	45	–	–
COc1ccc(CCc2nc3cc(-c4c(C)noc4C)ccc3n2C[C@H](C)N2CCOCC2)cc1Cl [SGC-CBP30]	–	poor microsomal stability	40
